Measurements taken from ChEMBL document CHEMBL3997833, “Efficient synthesis of α-fluoromethylhistidine di-hydrochloride and demonstration of its efficacy as a glutathione S-transferase inhibitor” (Bioorg Med Chem Lett, 2017).

Tests used:
[1] = system: GST (glutathione S-transferase); assay: (§1) Inhibition of Schistosoma japonicum C-terminal His6-tagged GST expressed in Escherichia coli BL21(DE3) assessed as reduction in GSH transfer activity by measuring residual activity at 150 uM using GSH/CDNB co-substrate mixture preincubated for 10 mins followed by substrate addition by colorimetric method relative to control; conditions: probe GSH/CDNB co-substrate mixture, read-out: Activity
[2] = system: GST (glutathione S-transferase); assay: as §1, with “10 mM” for “150 uM”; conditions: probe GSH/CDNB co-substrate mixture, read-out: Activity

Row | activity at 10000 µM [2] [%] | SMILES | activity at 150 µM [1] [%]
1 | – | N[C@@](CF)(Cc1cnc[nH]1)C(=O)O | 57
2 | 33 | Nc1ccc(C(=O)O)cc1 [AMINOBENZOIC ACID] | –
